In US20190077795A1, “ARGININE […] INHIBITORS AND USES THEREOF” (Epizyme, Inc., priority 2014, published 2019):
Like-named read-outs stand apart in the source and are kept apart here.

How the values were obtained:
human PRMT1 = molecular target: T1, human PRMT1 (Homo sapiens, UniProt Q99873); assay: PRMT1 Biochemical Assay; settings: peptide substrate, 3H-SAM Flashplate assay; read-out: PRMT1 IC50
T1 construct: GST-tagged PRMT1; made in house; host or cells: High Five insect cells (baculovirus, pFastBac1)
Procedure, shortened: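 GST-tagged PRMT1 from baculovirus-infected cells, preincubated with compounds 30 min at room temperature in 20 mM Bicine pH 7.6, 1 mM TCEP, 0.005% BSG, 0.002% Tween 20. Reaction started with ³H-SAM plus biotinylated peptide, stopped with 300 µM cold SAM.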

human PRMT6 = molecular target: T2, human PRMT6 (Homo sapiens, UniProt Q96LA8); assay: PRMT6 Biochemical Assay
T2 construct: Flag-PRMT6-His; made in house; host or cells: HEK 293F cells (BacMam baculovirus, pFastBacMam)

[1] = system: mono-methyl arginine in RKO cells; assay: RKO Methylation Assay, In Cell Western (ICW); assay type: cell-based; settings: 72 hours
human PRMT8 = human PRMT8 (Homo sapiens, UniProt Q9NR22); assay: PRMT8 Biochemical Assay; settings: PRMT8 IC50 (uM), peptide substrate, 3H-SAM Flashplate assay
[2] = peptide substrate, 3H-SAM Flashplate assay, read-out: PRMT6 IC50

T1 sequence (Q99873 with tags, fused parts or gaps): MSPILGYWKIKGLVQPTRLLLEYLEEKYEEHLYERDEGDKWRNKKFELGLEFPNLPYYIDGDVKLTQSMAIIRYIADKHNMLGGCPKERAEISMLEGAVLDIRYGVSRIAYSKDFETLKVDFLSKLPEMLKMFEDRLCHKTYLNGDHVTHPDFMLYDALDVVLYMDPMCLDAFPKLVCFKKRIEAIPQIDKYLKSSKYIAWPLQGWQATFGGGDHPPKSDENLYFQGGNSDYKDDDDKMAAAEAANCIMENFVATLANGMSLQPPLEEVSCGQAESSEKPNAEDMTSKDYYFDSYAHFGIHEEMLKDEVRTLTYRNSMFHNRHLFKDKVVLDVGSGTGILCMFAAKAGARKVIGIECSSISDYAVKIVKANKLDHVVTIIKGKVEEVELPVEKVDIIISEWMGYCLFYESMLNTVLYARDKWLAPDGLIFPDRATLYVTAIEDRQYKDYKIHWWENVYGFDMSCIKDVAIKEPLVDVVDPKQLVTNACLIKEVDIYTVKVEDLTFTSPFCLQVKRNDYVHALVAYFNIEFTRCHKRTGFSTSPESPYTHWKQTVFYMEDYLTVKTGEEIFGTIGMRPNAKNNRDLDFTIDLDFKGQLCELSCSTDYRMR
Sequence of human PRMT8 (Q9NR22 whole entry): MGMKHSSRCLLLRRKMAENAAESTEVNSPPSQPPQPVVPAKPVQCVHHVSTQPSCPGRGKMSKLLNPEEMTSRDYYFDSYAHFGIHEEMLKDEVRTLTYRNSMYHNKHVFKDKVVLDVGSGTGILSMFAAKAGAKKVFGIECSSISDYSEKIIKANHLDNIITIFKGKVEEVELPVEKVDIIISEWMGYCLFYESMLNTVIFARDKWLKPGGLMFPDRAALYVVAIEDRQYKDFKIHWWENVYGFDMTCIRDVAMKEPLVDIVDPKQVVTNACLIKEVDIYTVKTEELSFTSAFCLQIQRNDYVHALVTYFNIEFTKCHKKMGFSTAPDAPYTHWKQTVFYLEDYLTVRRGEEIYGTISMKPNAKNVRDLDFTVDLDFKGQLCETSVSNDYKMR
T2 sequence (Q96LA8 with tags, fused parts or gaps): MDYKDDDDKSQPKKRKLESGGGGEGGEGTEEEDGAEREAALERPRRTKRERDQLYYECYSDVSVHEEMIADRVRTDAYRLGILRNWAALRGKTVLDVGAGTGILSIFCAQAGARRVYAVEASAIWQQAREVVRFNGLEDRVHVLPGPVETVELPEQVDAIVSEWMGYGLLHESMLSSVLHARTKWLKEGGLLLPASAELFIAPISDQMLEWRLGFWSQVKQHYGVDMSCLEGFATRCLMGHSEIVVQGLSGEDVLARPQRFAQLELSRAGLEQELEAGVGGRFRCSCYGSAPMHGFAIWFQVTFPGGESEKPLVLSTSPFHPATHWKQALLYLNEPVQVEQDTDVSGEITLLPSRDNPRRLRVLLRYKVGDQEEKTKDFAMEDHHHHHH

Structure (SMILES) | IC50 (human PRMT1) | IC50 (human PRMT6; [2]) | IC50 (human PRMT8) | ICW EC30 [1] | IC50 (human PRMT6; PRMT6 IC50 (uM))
CCCOCCOc1cc(-c2n[nH]cc2CN(C)CCNC)cc(C(F)(F)F)c1 [Compound 60] | 12.7 nM | 1.2 µM | 0.0525 µM | 1.263 µM | 
CNCCN(C)Cc1c[nH]nc1-c1ccc(OCCOc2ccccc2)cc1 [Compound 61] | 12.9 nM | 0.0114 µM | 0.0374 µM | 0.13 µM | 
CNCCN(C)Cc1c[nH]nc1-c1ccc(OCCOc2cccc(C(C)C)c2)cc1 [Compound 62] | 12.9 nM | 0.00431 µM | 0.0363 µM | 1.378 µM | 
CNCCN(C)Cc1ccnn1C1CCC2(CCCO2)CC1 (stereo not shown) [Compound 63] | 13.1 nM | 0.0317 µM | 0.0445 µM | 0.1727 µM | 
CNCCN(C)Cc1c[nH]nc1-c1ccc(OCCCOC)c(OC2CCOCC2)c1 [Compound 64] | 13.9 nM | 0.0535 µM | 0.249 µM | 4.628 µM | 
CCC(CC)Oc1ccc(-n2nc(C)cc2CN(C)CCNC)cc1 [Compound 65] | 14.1 nM |  | 0.0299 µM | 0.2156 µM | 0.136 µM
CNCCN(C)Cc1c[nH]nc1-c1ccc(N2CCCCC2)nc1 [Compound 66] | 14.2 nM | 0.0408 µM | 0.0371 µM | 0.3931 µM | 
CNCCN(C)Cc1c[nH]nc1-c1ccc(OCCCOC)c(OCC2CCOC2)c1 (stereo not shown) [Compound 68] | 14.8 nM | 0.038 µM | 0.295 µM | 3.454 µM | 
CNCCN(C)Cc1c[nH]nc1-c1ccc(N(CCCN2CCOCC2)CC(C)C)nc1 [Compound 69] | 14.9 nM | 2.54 µM | 0.0312 µM | 1.337 µM | 
CNCCN(C)Cc1c[nH]nc1-c1cc(CC(F)(F)F)cc(OCCOC)c1 [Compound 70] | 15.2 nM |  | 0.0511 µM | 0.494 µM | 1.27 µM
CNCCN(C)Cc1c[nH]nc1-c1cc(CC(C)C)cc(OCCOC)c1 [Compound 71] | 15.3 nM | 4.39 µM | 0.0452 µM | 0.68 µM | 
CNCCN(C)Cc1c[nH]nc1-c1ccc(OCCOc2ccc(OCCOC)cc2)cc1 [Compound 72] | 15.3 nM | 0.0101 µM | 0.035 µM | 0.163 µM | 
CNCCN(C)Cc1c[nH]nc1-c1ccc(C#N)cc1 [Compound 74] | 16.1 nM |  | 0.0231 µM | 0.541 µM | 0.027 µM
CNCCN(C)Cc1ccnn1-c1ccc(OCC2CC2)cc1 [Compound 75] | 16.2 nM | 0.0495 µM | 0.0487 µM | 0.5381 µM | 
CNCCN(C)Cc1c[nH]nc1-c1ccc(N2CCCC2)nc1 [Compound 78] | 18.3 nM |  | 0.0309 µM | 0.7571 µM | 0.0395 µM
CNCCN(C)Cc1c[nH]nc1-c1cnc(OCCOC)c(C(F)(F)F)c1 [Compound 79] | 19.8 nM | 0.105 µM | 0.171 µM | 2.611 µM | 
CNCCN(C)Cc1cnn(CCOC)c1-c1ccc(OC(C)C)cc1 [Compound 97] | 28.2 nM |  | 0.0601 µM | 1.994 µM | 0.106 µM
CNCCN(C)Cc1c[nH]nc1-c1ccc(N(C)CC(C)C)cc1 [Compound 102] | 31.9 nM |  | 0.0819 µM | 1.057 µM | 0.236 µM
CNCCN(C)Cc1c[nH]nc1-c1cc(OCC2CCOC2)cc(C(F)(F)F)c1 (stereo not shown) [Compound 104] | 33.3 nM |  | 0.226 µM | 1.467 µM | 2.9 µM
CCOCC(C)(C)c1ccc(-c2n[nH]cc2CN(C)CCNC)cc1 [Compound 105] | 34 nM |  | 0.106 µM | 2.748 µM | 0.0559 µM
CNCCN(C)Cc1c[nH]nc1-c1cc(OC)c(CC(C)C)c(OC)c1 [Compound 108] | 35.7 nM |  | 0.0712 µM | 2.967 µM | 0.824 µM
CNCCN(C)Cc1c[nH]nc1-c1cc(F)c(OCC2CCOCC2)c(C(F)(F)F)c1 [Compound 116] | 39.1 nM |  | 0.118 µM | 3.806 µM | 0.0184 µM

Continued, in another order:

IC50 (human PRMT1) | IC50 (human PRMT6; [2]) | IC50 (human PRMT8) | Structure (SMILES) | ICW EC30 [1] | IC50 (human PRMT6; PRMT6 IC50 (uM))
19.8 nM | 0.114 µM | 0.0494 µM | CNCCN(C)Cc1ccnn1-c1ccc(OC(C)C)cc1 [Compound 80] | 0.411 µM | 
19.9 nM | 0.0445 µM | 0.0947 µM | CNCCN(C)Cc1c[nH]nc1-c1ccc2oc(C(C)C)nc2c1 [Compound 81] | 0.927 µM | 
20.3 nM | 0.0777 µM | 0.189 µM | CNCCN(C)Cc1c[nH]nc1-c1cnc(OCCCOC)c(C(F)(F)F)c1 [Compound 82] | 4.06 µM | 
20.5 nM | 0.069 µM | 0.0337 µM | CNCCN(C)Cc1c[nH]nc1-c1ccc(OC(C)C)nc1 [Compound 83] | 0.2 µM | 
20.7 nM | 0.707 µM | 0.228 µM | CNCCN(C)Cc1c[nH]nc1-c1cc(OC2CCOC2)cc(C(F)(F)F)c1 (stereo not shown) [Compound 84] | 4.957 µM | 
21.3 nM | 0.0144 µM | 0.0853 µM | CNCCN(C)Cc1c[nH]nc1-c1ccc(OC2CC(O)C2)cc1 (stereo not shown) [Compound 85] | 3.594 µM | 
22.5 nM | 0.0196 µM | 0.0686 µM | CNCCN(C)Cc1c[nH]nc1-c1ccc(OC2CCC(OC)CC2)cc1 (stereo not shown) [Compound 86] | 0.836 µM | 
22.7 nM | 0.0783 µM | 0.424 µM | CNCCN(C)Cc1c[nH]nc1-c1ccc(OCCCOC)c(OCC2CCOCC2)c1 [Compound 87] | 6.199 µM | 
23 nM | 0.0235 µM | 0.0267 µM | CNCCN(C)Cc1cnn(C)c1-c1ccc(OC2CCOCC2)cc1 [Compound 88] | 1.236 µM | 
23.1 nM | 0.0251 µM | 0.0475 µM | CNCCN(C)Cc1c[nH]nc1-c1ccc(OC2CCC(OC(C)C)CC2)cc1 (stereo not shown) [Compound 89] | 0.4491 µM | 
24.2 nM | 0.0199 µM | 0.117 µM | CNCCN(C)Cc1c[nH]nc1-c1ccc(OCCOc2cccnn2)cc1 [Compound 90] | 2.491 µM | 
24.7 nM | 0.0322 µM | 0.282 µM | CNCCN(C)Cc1c[nH]nc1-c1ccc(OCC2COC2)cc1 [Compound 91] | 3.058 µM | 
24.7 nM | 0.0309 µM | 0.043 µM | CNCCN(C)Cc1c[nH]nc1-c1ccc(S(C)(=O)=O)cc1 [Compound 92] | 2.126 µM | 
24.8 nM | 3.38 µM | 0.326 µM | CNCCN(C)Cc1c[nH]nc1-c1cc(OCCC(C)(C)O)cc(C(F)(F)F)c1 [Compound 93] | 4.55 µM | 
25.5 nM | 0.823 µM | 0.158 µM | COCCOc1cc(-c2n[nH]cc2CN(C)CCN)cc(C(F)(F)F)c1 [Compound 94] | 6.823 µM | 
25.8 nM | 0.771 µM | 0.0843 µM | CNCCN(C)Cc1c[nH]nc1-c1cc(OCCOC)cc(C(C)C)c1 [Compound 95] | 0.726 µM | 
26.7 nM | 5.13 µM | 0.108 µM | CNCCN(C)Cc1c[nH]nc1-c1cc(OCCOC)cc(OC(F)(F)F)c1 [Compound 96] | 1.762 µM | 
28.5 nM | 0.0289 µM | 0.113 µM | CNCCN(C)Cc1c[nH]nc1-c1ccc(OC2CCC(OCCOC)CC2)cc1 (stereo not shown) [Compound 98] | 0.8685 µM | 
29.7 nM | 0.0633 µM | 0.127 µM | CNCCN(C)Cc1c[nH]nc1-c1ccc(N2CCCC2=O)cc1 [Compound 99] | 3.944 µM | 
30.9 nM | 2.66 µM | 0.342 µM | CNCCN(C)Cc1c[nH]nc1-c1cc(C(=O)NCCOC)cc(C(F)(F)F)c1 [Compound 101] | 11.123 µM | 
33.3 nM | 0.0274 µM | 0.0421 µM | CNCCN(C)Cc1c[nH]nc1-c1cc(F)c(OCCOC)c(C(F)(F)F)c1 [Compound 103] | 0.85 µM | 
34 nM | 3.51 µM | 0.201 µM | CCC(CO)Oc1cc(-c2n[nH]cc2CN(C)CCNC)cc(C(F)(F)F)c1 (stereo not shown) [Compound 106] | 3.7 µM | 
36.1 nM | 7.12 µM | 0.203 µM | CNCCN(C)Cc1c[nH]nc1-c1cc(OCCOC)cc(C(C)(C)C)c1 [Compound 109] | 1.928 µM | 
36.7 nM | 0.955 µM | 0.252 µM | CNCCN(C)Cc1c[nH]nc1-c1ccc(N(C)C2CCOCC2)cc1 [Compound 111] | 1.04 µM | 
38.1 nM | 0.59 µM | 0.0836 µM | CCC(CC)Oc1ccc(-n2ncc(C)c2CN(C)CCNC)cc1 [Compound 114] | 1.855 µM | 
39.2 nM | 2.32 µM | 0.317 µM | CNCCN(C)Cc1c[nH]nc1-c1ccc(N(C)C2CCOCC2)nc1 [Compound 117] | 8.433 µM | 
41.2 nM | 0.0342 µM | 0.0955 µM | CNCCN(C)Cc1c[nH]nc1-c1ccc(OC(CO)CC(C)C)cc1 (stereo not shown) [Compound 118] | 1.175 µM | 
